This note sets out measurements from patent US20040039041A1, “Prevention of development of dyskinesias” (priority 2003, published 2004).

The test system of assay [1] is C57BL/6J strain male mice. The experiment in a line: Locomotor activity after different drug treatments at day 9 in the chronic treatment groups. It counts as in vivo. How it is done:
(§1) Experiments were performed with C57BL/6J strain male mice from Jackson Laboratories. Mice were transferred to laboratory at least 2 weeks prior to use. The mice were from 8 to 20 weeks of age at the beginning of an experiment. Groups of 10 mice were housed in standard polypropylene cages (38×22×15 cm) with free access to standard certified pelleted food (RM1 Maintenance Expanded SQC; Special Diet Services, Essex, UK) and water. Ambient temperature was 22±1 C°, and a 12:12 h light/dark cycle was maintained with lights on at 6 A.M. All experiments were carried out between 7 A.M. and 5 P.M. The animal care was performed in accordance with International Council for Laboratory Animal Science (ICLAS) guidelines.
(§2) D-Amphetamine sulphate (Sigma, St. Louis, Mo., U.S.A.) and atipamezole HCl (Orion Corporation, Orion Pharma, Turku, Finland) were dissolved in saline (0.9% NaCl) and administered subcutaneously (s.c.) in a 5 ml/kg volume.
(§3) The locomotor activity of the mice was measured in transparent standard polypropylene animal cages (38×22×15 cm) with transparent cover and aspen bedding on the floor. Test cages were placed middle of the photobeam frame system (Photobeam Activity System PAS, Cage Rack, San Diego Instruments, San Diego, Calif.). Computer control unit registered the interruptions of photobeams from 16 individual cages. Three different types of movements were monitored: 1) ambulations (large horizontal movements), 2) fine movements (smaller horizontal movements) and 3) rearings (vertical movements). Locomotor activity was measured at 5-min intervals for 2 h immediately after D-amphetamine or saline administrations.
At day nine, the effect of different atipamezole and amphetamine administrations to the locomotor activity on the chronic treatment groups were analysed. Used treatments were saline, 1 mg/kg atipamezole, 2 mg/kg D-amphetamine, 0.3 mg/kg atipamezole-2 mg/kg D-amphetamine and 1 mg/kg atipamezole-2 mg/kg D-amphetamine. Chronic treatment groups were saline-, atipamezole-, amphetamine- and atipamezole-amphetamine groups. Chronic groups were treated following schedule in Table 2.
All data are presented as mean±SEM. Statistical analysis were performed using SPSS 9.0 for Windows (SPSS, Chicago, Ill.). Separate repeated measures analyses of variance (ANOVA) were performed on each variable for each experiment grouped on time and treatment group. Results were analysed separately, because data were collected in separate experiments with different study design. When significance (P<0.05) between treatment groups were found comparisons at each time point (date or min) were analyzed by using LSD post-hoc test.

Assay [2] relates to C57BL/6J strain male mice. Description: Locomotor activity during chronic treatment (days 1-8), D-amphetamine sensitization schedule with atipamezole pre-treatment. It counts as in vivo. On the procedure: The effects of atipamezole on the locomotor hyperactivity induced by repeated administration of D-amphetamine were studied in male mice.
as §1, §2, §3
D-amphetamine was administered subcutaneously (s.c.) at the dose of 2 mg/kg. Atipamezole was administered s.c. at the dose of 1 mg/kg 20 min before locomotor activity measurement.
In the chronic-treatment group mice were administrated during eight days to elicit provoked locomotor hyperactivity to D-amphetamine and the effect of the atipamezole to the locomotor activity. Mice groups in the chronic treatment schedule were saline, saline-amphetamine, amphetamine, atipamezole and atipamezole-amphetamine. A day before experiment, mice were habituated to the test environment. […] At days seven and eight, the produced locomotor hyperactivity and effect of a single exposure of D-amphetamine (saline-amphetamine-group) were analysed. […]
All data are presented as mean±SEM. […] Results were analysed separately, because data were collected in separate experiments with different study design. When significance (P<0.05) between treatment groups were found comparisons at each time point (date or min) were analyzed by using LSD post-hoc test.

Take `CCC1(c2c[nH]cn2)Cc2ccccc2C1` [Atipamezole, 4-(2-ethyl-2,3-dihydro-1H-inden-2-yl)-1H-imidazole]: the “D-amphetamine-induced locomotor hyperactivity in sensitized mice” value is on record as “clearly attenuated the D-amphetamine-induced locomotor hyperactivity” in assay [1] (Day 9, chronic amphetamine group, atipamezole 0.3 mg/kg 20 min before D-amphetamine 2 mg/kg, P=0.005) and “clearly attenuated the D-amphetamine-induced locomotor hyperactivity” in assay [1] (Day 9, chronic amphetamine group, atipamezole 1 mg/kg 20 min before D-amphetamine 2 mg/kg, P<0.001). For the same compound, the “locomotor activity before saline and D-amphetamine challenge after chronic atipamezole” value in assay [1] (Day 9, chronic atipamezole group (1 mg/kg days 1-8)) was “elevation was not statistically significant”. In addition, the “D-amphetamine induced locomotion, group atipamezole-amphetamine vs amphetamine-amphetamine” value in assay [1] (Day 9, chronic atipamezole-amphetamine group given atipamezole 1 mg/kg 20 min before D-amphetamine 2 mg/kg, P<0.001) is reported as “decreased significantly D-amphetamine induced locomotion”. In assay [1] (Day 9, chronic atipamezole-amphetamine group given only D-amphetamine 2 mg/kg, P-0.026), the “locomotor activity with D-amphetamine only at Day 9 after chronic atipamezole-amphetamine, compared to amphetamine-amphetamine group (development of sensitization)” value is given as “true reduction in the development of sensitization”. Also, the “locomotor activity, atipamezole pre-treatment before D-amphetamine challenge compared D-amphetamine alone” value in assay [1] (Day 9, chronic saline group, atipamezole 0.3 mg/kg 20 min before D-amphetamine 2 mg/kg, P=0.016) is given as “amplified locomotor activity”; in assay [1] (Day 9, chronic saline group, atipamezole 1 mg/kg 20 min before D-amphetamine 2 mg/kg, P=0.364) it was “had no effect”. Also, in assay [1] (Day 9, chronic saline group, atipamezole 1 mg/kg 20 min before saline, P=0.81), the “total ambulatory activity counts, atipamezole pre-treatment alone” value was “did not alter total ambulatory activity counts”. Besides, the “D-amphetamine-induced locomotion, atipamezole-amphetamine vs amphetamine group” value in assay [2] (atipamezole 1 mg/kg s.c. 20 min before D-amphetamine 2 mg/kg s.c. over the course of exposure, Day 2 P<0.05, Days 3-8 P<0.001) is on record as “decreased significantly D-amphetamine-induced locomotion”. Moreover, the “locomotor activity, atipamezole pre-treatment before saline challenge vs saline group” value in assay [2] (atipamezole 1 mg/kg s.c. daily for six days, 20 min before saline, Day 8, P=0.43) was “not statistical significant difference”. In assay [2] (given chronically in combination with D-amphetamine, in mice (summary statement)), the “development and expression of sensitization (motor overactivity)” value was “reduced the development and expression of sensitization”.

For the compound `C[C@H](N)Cc1ccccc1` [D-amphetamine], in assay [1] (Day 9, chronic amphetamine group, D-amphetamine 2 mg/kg, P<0.001), the “ambulatory sensitization during repeated administration” value is “developed strong ambulatory sensitization”. For the same compound, the “locomotor activity after D-amphetamine” value in assay [1] (Day 9, chronic saline group, D-amphetamine 2 mg/kg s.c., P<0.001 vs saline, not same level as amphetamine group (P<0.001)) is reported as “significantly enhanced locomotor activity”. Also, the “ambulatory activity compared to saline group” value in assay [2] (D-amphetamine 2 mg/kg s.c., six repeated administrations (days 1-4, 7, 8), 2-h counts, group amphetamine vs saline and saline-amphetamine at Day 8 P<0.001) is on record as “progressive enhance in ambulatory activity”.
